18 molecules from patent publication US6221874A, “Method of treating bone loss by stimulation of calcitonin” (American Home Products Corporation, priority 1999, dated 2001) can be followed below.

The subject of assay [1] is promoter region of the human calcitonin gene (C1-3 reporter cells, TT human thyroid carcinoma). Kind of assay: Calcitonin/Luciferase Reporter Gene Expression Assay (transcription activation ratio). The format is cell-based. The following applies: C13, 12 h, C1-3 cells, active if TAR>1.5, read-out: TAR (transcription activation ratio, luciferase activity with test compound vs untreated control).

The test system of assay [2] is calcitonin secreted by the C1-3 cell line (TT medullary thyroid carcinoma). Nature of the assay: Calcitonin Secretion/RIA Assay. The following applies: Homo sapiens, C13, C1-3 cells, active if Secretion Ratio>2.5. The format is cell-based. On the procedure: Calcitonin Secretion/RIA Assay Protocol
This assay was used to determine the ability of a compound to increase the amount of calcitonin secreted by the C1-3 cell line.
Cell Line: C1-3 (Parent Cell Line: TT-medullary thyroid carcinoma),
1. Glass tubes were labeled to include Total Count (TC), Nonspecific Binding (NSB), Maximum Binding (Bo), Standards, Controls and Patient Sera in duplicate.
2. […] of Standard Zero (Reagent D) was added to tubes 3 through 6 (NSB and Bo).
3. […] of Standards* (Reagents E-1) was added to tubes 7-16 as follows:
4. […] of Patient Serum 1 was added to tubes 21 and 22, Patient Serum 2 was added to tubes 23 and 24, etc.
5. […] of Reagent L (NSB Buffer) was added to tubes 3 and 4.
6. […] of Reagent A (Anti-Calcitonin) was added to all tubes except tubes 1 & 2 (TC) and tube 3 & 4 (NSB). All tubes were vortexed, covered with parafilm or foil and incubated 44±6 hours at 2-8° C.
7. […] of 125.vertline.Calcitonin (Reagent B) was added to all tubes. All tubes were vortexed, covered with parafilm or foil and incubated 22±3 hours at 2-8° C.
8. Reagent C (Anti-Goat Precipitant) was mixed gently but thoroughly by inverting the vial several times before use. 1 mL Reagent C was added to all tubes except 1 and 2 (TC). Tubes were vortexed and incubated 20 minutes at room temperature.
9. All tubes were centrifuged at 1300-1500×g for 15 minutes at 2-8° C.
10. Supernatant was decanted immediately after centrifugation taking care to leave the precipitate intact.
11. Tubes were counted 4 minutes or longer.
Secretion Ratio: Stimulation of calcitonin secretion is expressed as a ratio of secretion activity in the presence of test compound compared to the secretion activity in the untreated control: [formula]
Secretion Activity: Compounds were designated active if Secretion Ratio>2.5.

In assay [3] the test system is Phosphodiesterase IV (PDE-IV) isolated from human U937 cells. Kind of assay: Inhibition of Phosphodiesterase IV (PDE-IV) Isolated from Human U937 Cells. The assay is classed as biochemical. The following applies: for IC50: linear regression of percent inhibition data bracketing 50% inhibition; for % Inhibition of PDE IV (normalized to rolipram): 1 μM [3H]-cAMP substrate.

The subject of assay [4] is Ovarietomy Induced Osteopenia in Rats. Nature of the assay: Ovarietomy Induced Osteopenia in Rats (trabecular BMD). The format is in vivo. The following applies: Rattus norvegicus, 672 h; 30 mg/kg/day, ip; 4 weeks; n=8; * p < 0.005 vs. vehicle value (Examples 6, 12, 18); read-out: Percent Protection (trabecular BMD).

The IC50 is the concentration at which inhibition is half-maximal. A higher IC50 goes with a need for much substance. As for `CCCCn1c(=O)c2c(ncn2S(C)(=O)=O)n(CCCC)c1=O` [Example 1, 1,3-Dibutyl-7-methanesulfonyl-3,7-dihydro-purine-2,6-dione], the fold induction at 30 µM in assay [1] was determined as 2.1. For the same molecule, in assay [2], the fold induction at 30 µM was determined as 4.65. For the same molecule, in assay [3], the midpoint of inhibition, the IC50, lay at 25.2 µM and the “% Inhibition of PDE IV (normalized to rolipram)” value was determined as 16%.

As to `CCCCn1c(=O)c2c(ncn2S(=O)(=O)CCCC)n(CCCC)c1=O` [Example 2, 7-(Butane-1-sulfonyl)-1,3-dibutyl-3,7-dihydro-purine-2,6-dione], the fold induction at 30 µM in assay [1] turned out to be 2.2; in assay [2] it was 4.65. Besides, in assay [4], the inhibition in vivo at 30 mg/kg amounted to 23%. In assay [3], the “% Inhibition of PDE IV (normalized to rolipram)” value was 97%.

Consider `CCCCn1c(=O)c2c(ncn2S(=O)(=O)c2cccc([N+](=O)[O-])c2)n(CCCC)c1=O` [Example 3, 1,3-Dibutyl-7-(3-nitro-benzenesulfonyl)-3,7-dihydro-purine-2,6-dione], for which the values for the fold induction at 30 µM in assay [1] and in assay [2] were 2 and 1.65, respectively. Also, the inhibition in vivo at 30 mg/kg in assay [4] came to 30%. In addition, the “% Inhibition of PDE IV (normalized to rolipram)” value in assay [3] is listed as 87%.

Consider `CCCCn1c(=O)c2c(ncn2S(=O)(=O)c2ccc(OC)c(OC)c2)n(CCCC)c1=O` [Example 4, 1,3-Dibutyl-7-(3,4-dimethoxy-benzenesulfonyl)-3,7-dihydro-purine-2,6-dione], for which the fold induction at 30 µM in assay [1] turned out to be 2.5; in assay [2] it was 4.7. Further, the inhibition in vivo at 30 mg/kg in assay [4] was 35%. Further, in assay [3], 1.2 µM corresponded to half-maximal inhibition (IC50). Besides, in assay [3], the “% Inhibition of PDE IV (normalized to rolipram)” value was found to be 41%.

As to `CCCCn1c(=O)c2c(ncn2S(=O)(=O)c2cccs2)n(CCCC)c1=O` [Example 5, 1,3-Dibutyl-7-(thiophene-2-sulfonyl)-3,7-dihydro-purine-2,6-dione], the fold induction at 30 µM in assay [1] is 1.8. Also, the “% Inhibition of PDE IV (normalized to rolipram)” value in assay [3] is recorded as 52%.

Consider `CCCCn1c(=O)c2c(ncn2S(=O)(=O)CCCCl)n(CCCC)c1=O` [Example 6, 1,3-Dibutyl-7-(3-chloro-propane-1-sulfonyl)-3,7-dihydro-purine-2,6-dione], for which, in assay [1], the fold induction at 30 µM was 2. The fold induction at 30 µM in assay [2] was 3.6. In addition, the inhibition in vivo at 30 mg/kg in assay [4] came to 47%. In assay [3], the half-inhibitory concentration (IC50) is 4.1 µM and the “% Inhibition of PDE IV (normalized to rolipram)” value worked out at 44%.

Turning to `CCCCn1c(=O)c2c(ncn2S(=O)(=O)c2cccc3ccccc23)n(CCCC)c1=O` [Example 7, 1,3-Dibutyl-7-(naphthalene-1-sulfonyl)-3,7-dihydro-purine-2,6-dione], the fold induction at 30 µM came to 2.5 in assay [1] and 4.5 in assay [2]. Also, the inhibition in vivo at 30 mg/kg in assay [4] stood at 37%. The “% Inhibition of PDE IV (normalized to rolipram)” value in assay [3] stood at 83%.

On to `CCCCn1c(=O)c2c(ncn2S(=O)(=O)c2ccc(NO)cc2)n(CCCC)c1=O` [Example 8, 1,3-Dibutyl-7-(4-hydroxyamino-benzenesulfonyl)-3,7-dihydro-purine-2,6-dione], for which the values for the fold induction at 30 µM in assay [1] and in assay [2] were 2 and 5.4, respectively. Moreover, in assay [4], the inhibition in vivo at 30 mg/kg was -2%. Moreover, in assay [3], the “% Inhibition of PDE IV (normalized to rolipram)” value is listed as 82%.

For the molecule `CCCCn1c(=O)c2c(ncn2S(=O)(=O)Cc2ccccc2)n(CCCC)c1=O` [Example 9, 1,3-Dibutyl-7-phenylmethanesulfonyl-3,7-dihydro-purine-2,6-dione], in assay [1], the fold induction at 30 µM was 2.3. Besides, in assay [2], the fold induction at 30 µM worked out at 5.1. Besides, the inhibition in vivo at 30 mg/kg in assay [4] stood at 25%. In assay [3], half-maximal inhibition (IC50) was put at 3.2 µM and the “% Inhibition of PDE IV (normalized to rolipram)” value is recorded as 93%.

For `CCCCn1c(=O)c2c(ncn2S(=O)(=O)C[C@@]23CC[C@@H](CC2=O)C3(C)C)n(CCCC)c1=O` [Example 10, 1,3-Dibutyl-7-(7,7-dimethyl-2-oxo-bicyclo[2.2. 1]hept-1-ylmethanesulfonyl)-3,7-dihydro-purine-2,6-dione], the fold induction at 30 µM in assay [1] was determined as 2; in assay [2], 4.5. Besides, the inhibition in vivo at 30 mg/kg in assay [4] is -10%. Besides, the “% Inhibition of PDE IV (normalized to rolipram)” value in assay [3] is given as 89%.

On to `CCCCn1c(=O)c2c(ncn2S(=O)(=O)c2ccc(N(OC(C)=O)C(C)=O)cc2)n(CCCC)c1=O` [Example 11, N-Acetoxy-N-[4-(1,3-dibutyl-2,6-dioxo-1,2,3,6-tetrahydro-purine-7-sulfonyl)-phenyl]-acetamide], for which the figures for the fold induction at 30 µM in assay [1] and in assay [2] were 2.1 and 4.3, respectively.

As for `CCCCn1c(=O)c2c(ncn2S(=O)(=O)c2c(C)cc(C)cc2C)n(CCCC)c1=O` [Example 12, 1,3-Dibutyl-7-(2,4,6-trimethyl-benzenesulfonyl)-3,7-dihydro-purine-2,6-dione], in assay [1], the fold induction at 30 µM was 2.1. Also, the fold induction at 30 µM in assay [2] was determined as 4.04. Moreover, in assay [4], the inhibition in vivo at 30 mg/kg worked out at 50%. Besides, in assay [3], the IC50 was found to be 6 µM and the “% Inhibition of PDE IV (normalized to rolipram)” value is given as 42%.

For the molecule `CCCCn1c(=O)c2c(ncn2S(=O)(=O)c2ccc(C(C)(C)C)cc2)n(CCCC)c1=O` [Example 13, 1,3-Dibutyl-7-(4-tert-butyl-benzenesulfonyl)-3,7-dihydro-purine-2,6-dione], the results for the fold induction at 30 µM in assay [1] and in assay [2] were 1.8 and 5.1, respectively. Besides, in assay [4], the inhibition in vivo at 30 mg/kg was 13%. For the same molecule, in assay [3], the “% Inhibition of PDE IV (normalized to rolipram)” value is reported as 66%.

Take `CCCCn1c(=O)c2c(ncn2S(=O)(=O)c2c(C)noc2C)n(CCCC)c1=O` [Example 14, 1,3-Dibutyl-7-(3,5-dimethyl-isoxazole-4-sulfonyl)-3,7-dihydro-purine-2,6-dione]: the results for the fold induction at 30 µM in assay [1] and in assay [2] were 2.5 and 3.3, respectively. In addition, the “% Inhibition of PDE IV (normalized to rolipram)” value in assay [3] is on record as 20%.

In the case of `CCCCn1c(=O)n(CC)c(=O)c2c1ncn2S(=O)(=O)c1ccc(C)cc1` [Example 16, 3-Butyl-1-ethyl-7-(toluene-4-sulfonyl)-3,7-dihydro-purine-2,6-dione], the fold induction at 30 µM in assay [1] came to 2.1. Besides, in assay [3], the IC50 is 6 µM and the “% Inhibition of PDE IV (normalized to rolipram)” value worked out at 38%.

Consider `CCCCn1c(=O)n(CC=C(C)C)c(=O)c2c1ncn2S(=O)(=O)c1ccc(OC)c(OC)c1` [Example 17, 3-Butyl-7-(3,4-dimethoxy-benzenesulfonyl)-1-(3-methyl-but-2-enyl)-3,7-dihydro-purine-2,6-dione], for which the fold induction at 30 µM turned out to be 2.8 in assay [1] and 3.66 in assay [2]. For the same molecule, the “% Inhibition of PDE IV (normalized to rolipram)” value in assay [3] stood at 24%.

For the molecule `CCCCn1c(=O)c2c(nc(C)n2S(=O)(=O)CCCCl)n(CCCC)c1=O` [Example 19, 1,3-Dibutyl-7-(3-chloro-propane-1-sulfonyl)-8-methyl-3,7-dihydro-purine-2,6-dione], the fold induction at 30 µM in assay [1] came to 1.7; in assay [2] it was 4.09. Besides, in assay [3], the “% Inhibition of PDE IV (normalized to rolipram)” value was determined as 5%.

`CCCCn1c(=O)c2c(nc(C)n2S(=O)(=O)c2ccc(C)cc2)n(CCCC)c1=O` [Example 20, 1,3-Dibutyl-8-methyl-7-(toluene-4-sulfonyl)-3,7-dihydro-purine-2,6-dione]: the fold induction at 30 µM in assay [1] came to 2; in assay [2], 3.23. Besides, the “% Inhibition of PDE IV (normalized to rolipram)” value in assay [3] came out at 58%.
